Measurements reported in ChEMBL document CHEMBL1921686, “Molecular design, synthesis and bioactivity of glycosyl hydrazine and hydrazone derivatives: notable effects of the sugar moiety” (2011).

What follows are molecules tested on Phytophthora capsici (assay: Antifungal activity against Phytophthora capsici assessed as growth inhibition at 500 ug/mL by potted plant test). Settings: read-out: GI.
Type: functional

Row | SMILES | inhibition of growth at 500 µg/mL [%]
1 | COc1ccccc1C(=O)N/N=C/c1ccc(-c2ccc(F)cc2F)o1 | 20.9
2 | O=C(N/N=C/c1ccc(-c2ccc(F)cc2F)o1)c1ccccc1O | 52.8
3 | O=C(N/N=C/c1ccc(-c2ccc(F)cc2F)o1)c1ccccc1S[C@@H]1O[C@H](CO)[C@@H](O)[C@H](O)[C@H]1O | 88.5
4 | O=C(N/N=C/c1ccc(-c2ccc(F)cc2F)o1)c1ccccc1O[C@@H]1O[C@H](CO)[C@@H](O)[C@H](O)[C@H]1O | 85.5
5 | O=C(N/N=C/c1ccc(-c2ccc(F)cc2F)o1)c1ccccc1S[C@@H]1O[C@H](CO)[C@H](O)[C@H](O)[C@H]1O | 88.4
6 | O=C(N/N=C/c1ccc(-c2ccccc2Cl)o1)c1ccccc1S[C@@H]1O[C@H](CO)[C@@H](O)[C@H](O)[C@H]1O | 90
7 | O=C(N/N=C/c1ccc(-c2ccccc2Cl)o1)c1ccccc1O[C@@H]1O[C@H](CO)[C@@H](O)[C@H](O)[C@H]1O | 90
8 | O=C(N/N=C/c1ccc(-c2ccc(F)cc2F)o1)c1ccccc1S[C@@H]1O[C@H](CO)[C@@H](O[C@@H]2O[C@H](CO)[C@H](O)[C@H](O)[C@H]2O)[C@H](O)[C@H]1O | 30
9 | O=C(N/N=C/c1ccc(-c2ccccc2Cl)o1)c1ccccc1S[C@@H]1O[C@H](CO)[C@@H](O[C@@H]2O[C@H](CO)[C@H](O)[C@H](O)[C@H]2O)[C@H](O)[C@H]1O | 44.4
10 | CC12CC1(C)C(=O)N(c1cc(Cl)cc(Cl)c1)C2=O (stereo not given) [PROCYMIDONE] | 93.2

These molecules were tested on Bel-7402 (assay: Antitumor activity against human Bel7402 cells assessed as growth inhibition at 10 uM by SRB method). Settings: read-out: GI.
Type: functional

Row | SMILES | inhibition of growth at 10 µM [%]
11 | COc1ccccc1C(=O)N/N=C/c1ccc(-c2ccc(F)cc2F)o1 | 1.69
12 | O=C(N/N=C/c1ccc(-c2ccc(F)cc2F)o1)c1ccccc1O | 63.4
13 | O=C(N/N=C/c1ccc(-c2ccc(F)cc2F)o1)c1ccccc1S[C@@H]1O[C@H](CO)[C@@H](O)[C@H](O)[C@H]1O | -0.67
14 | O=C(N/N=C/c1ccc(-c2ccc(F)cc2F)o1)c1ccccc1O[C@@H]1O[C@H](CO)[C@@H](O)[C@H](O)[C@H]1O | -5.7
15 | O=C(N/N=C/c1ccc(-c2ccc(F)cc2F)o1)c1ccccc1S[C@@H]1O[C@H](CO)[C@H](O)[C@H](O)[C@H]1O | 27.2
16 | O=C(N/N=C/c1ccc(-c2ccccc2Cl)o1)c1ccccc1S[C@@H]1O[C@H](CO)[C@@H](O)[C@H](O)[C@H]1O | 2.09
17 | O=C(N/N=C/c1ccc(-c2ccccc2Cl)o1)c1ccccc1O[C@@H]1O[C@H](CO)[C@@H](O)[C@H](O)[C@H]1O | -10.3
18 | O=C(N/N=C/c1ccc(-c2ccc(F)cc2F)o1)c1ccccc1S[C@@H]1O[C@H](CO)[C@@H](O[C@@H]2O[C@H](CO)[C@H](O)[C@H](O)[C@H]2O)[C@H](O)[C@H]1O | -10.6
19 | O=C(N/N=C/c1ccc(-c2ccccc2Cl)o1)c1ccccc1S[C@@H]1O[C@H](CO)[C@@H](O[C@@H]2O[C@H](CO)[C@H](O)[C@H](O)[C@H]2O)[C@H](O)[C@H]1O | 8.3
20 | COc1cccc2c1C(=O)c1c(O)c3c(c(O)c1C2=O)C[C@@](O)(C(=O)CO)C[C@@H]3O[C@H]1C[C@H](N)[C@H](O)[C@H](C)O1 [DOXORUBICIN] | 6.53

The molecules below were run on KB (assay: Antitumor activity against human KB cells assessed as growth inhibition at 10 uM by SRB method). Settings: read-out: GI.
Type: functional

Row | SMILES | inhibition of growth at 10 µM [%]
21 | COc1ccccc1C(=O)N/N=C/c1ccc(-c2ccc(F)cc2F)o1 | 10.1
22 | O=C(N/N=C/c1ccc(-c2ccc(F)cc2F)o1)c1ccccc1O | 61.8
23 | O=C(N/N=C/c1ccc(-c2ccc(F)cc2F)o1)c1ccccc1S[C@@H]1O[C@H](CO)[C@@H](O)[C@H](O)[C@H]1O | -0.3
24 | O=C(N/N=C/c1ccc(-c2ccc(F)cc2F)o1)c1ccccc1O[C@@H]1O[C@H](CO)[C@@H](O)[C@H](O)[C@H]1O | 18.2
25 | O=C(N/N=C/c1ccc(-c2ccc(F)cc2F)o1)c1ccccc1S[C@@H]1O[C@H](CO)[C@H](O)[C@H](O)[C@H]1O | 10.7
26 | O=C(N/N=C/c1ccc(-c2ccccc2Cl)o1)c1ccccc1S[C@@H]1O[C@H](CO)[C@@H](O)[C@H](O)[C@H]1O | 24.3
27 | O=C(N/N=C/c1ccc(-c2ccccc2Cl)o1)c1ccccc1O[C@@H]1O[C@H](CO)[C@@H](O)[C@H](O)[C@H]1O | 9.11
28 | O=C(N/N=C/c1ccc(-c2ccc(F)cc2F)o1)c1ccccc1S[C@@H]1O[C@H](CO)[C@@H](O[C@@H]2O[C@H](CO)[C@H](O)[C@H](O)[C@H]2O)[C@H](O)[C@H]1O | 39.4
29 | O=C(N/N=C/c1ccc(-c2ccccc2Cl)o1)c1ccccc1S[C@@H]1O[C@H](CO)[C@@H](O[C@@H]2O[C@H](CO)[C@H](O)[C@H](O)[C@H]2O)[C@H](O)[C@H]1O | -4.67
30 | COc1cccc2c1C(=O)c1c(O)c3c(c(O)c1C2=O)C[C@@](O)(C(=O)CO)C[C@@H]3O[C@H]1C[C@H](N)[C@H](O)[C@H](C)O1 [DOXORUBICIN] | 45.1

These molecules were tested on Fusarium oxysporum (assay: Antifungal activity against Fusarium oxysporum assessed as growth inhibition at 500 ug/mL by potted plant test). Settings: read-out: GI.
Type: functional

Row | SMILES | inhibition of growth at 500 µg/mL [%]
31 | COc1ccccc1C(=O)N/N=C/c1ccc(-c2ccc(F)cc2F)o1 | 9
32 | O=C(N/N=C/c1ccc(-c2ccc(F)cc2F)o1)c1ccccc1O | 8
33 | O=C(N/N=C/c1ccc(-c2ccc(F)cc2F)o1)c1ccccc1S[C@@H]1O[C@H](CO)[C@@H](O)[C@H](O)[C@H]1O | 45.2
34 | O=C(N/N=C/c1ccc(-c2ccc(F)cc2F)o1)c1ccccc1O[C@@H]1O[C@H](CO)[C@@H](O)[C@H](O)[C@H]1O | 0
35 | O=C(N/N=C/c1ccc(-c2ccc(F)cc2F)o1)c1ccccc1S[C@@H]1O[C@H](CO)[C@H](O)[C@H](O)[C@H]1O | 64.5
36 | O=C(N/N=C/c1ccc(-c2ccccc2Cl)o1)c1ccccc1S[C@@H]1O[C@H](CO)[C@@H](O)[C@H](O)[C@H]1O | 8.06
37 | O=C(N/N=C/c1ccc(-c2ccccc2Cl)o1)c1ccccc1O[C@@H]1O[C@H](CO)[C@@H](O)[C@H](O)[C@H]1O | 64.5
38 | O=C(N/N=C/c1ccc(-c2ccc(F)cc2F)o1)c1ccccc1S[C@@H]1O[C@H](CO)[C@@H](O[C@@H]2O[C@H](CO)[C@H](O)[C@H](O)[C@H]2O)[C@H](O)[C@H]1O | 74.2
39 | O=C(N/N=C/c1ccc(-c2ccccc2Cl)o1)c1ccccc1S[C@@H]1O[C@H](CO)[C@@H](O[C@@H]2O[C@H](CO)[C@H](O)[C@H](O)[C@H]2O)[C@H](O)[C@H]1O | 40.3
40 | COC(=O)NC(=S)Nc1ccccc1NC(=S)NC(=O)OC [THIOPHANATE METHYL] | 64.5

These molecules were tested on Corynespora cassiicola (assay: Antifungal activity against Corynespora cassiicola assessed as growth inhibition at 500 ug/mL by potted plant test). Settings: read-out: GI.
Type: functional

Row | SMILES | inhibition of growth at 500 µg/mL [%]
41 | COc1ccccc1C(=O)N/N=C/c1ccc(-c2ccc(F)cc2F)o1 | 38.5
42 | O=C(N/N=C/c1ccc(-c2ccc(F)cc2F)o1)c1ccccc1O | 27.7
43 | O=C(N/N=C/c1ccc(-c2ccc(F)cc2F)o1)c1ccccc1S[C@@H]1O[C@H](CO)[C@@H](O)[C@H](O)[C@H]1O | 53.7
44 | O=C(N/N=C/c1ccc(-c2ccc(F)cc2F)o1)c1ccccc1O[C@@H]1O[C@H](CO)[C@@H](O)[C@H](O)[C@H]1O | 50.8
45 | O=C(N/N=C/c1ccc(-c2ccc(F)cc2F)o1)c1ccccc1S[C@@H]1O[C@H](CO)[C@H](O)[C@H](O)[C@H]1O | 39.4
46 | O=C(N/N=C/c1ccc(-c2ccccc2Cl)o1)c1ccccc1S[C@@H]1O[C@H](CO)[C@@H](O)[C@H](O)[C@H]1O | 41.9
47 | O=C(N/N=C/c1ccc(-c2ccccc2Cl)o1)c1ccccc1O[C@@H]1O[C@H](CO)[C@@H](O)[C@H](O)[C@H]1O | 49.3
48 | O=C(N/N=C/c1ccc(-c2ccc(F)cc2F)o1)c1ccccc1S[C@@H]1O[C@H](CO)[C@@H](O[C@@H]2O[C@H](CO)[C@H](O)[C@H](O)[C@H]2O)[C@H](O)[C@H]1O | 45.6
49 | O=C(N/N=C/c1ccc(-c2ccccc2Cl)o1)c1ccccc1S[C@@H]1O[C@H](CO)[C@@H](O[C@@H]2O[C@H](CO)[C@H](O)[C@H](O)[C@H]2O)[C@H](O)[C@H]1O | 41.6
50 | N#Cc1c(Cl)c(Cl)c(Cl)c(C#N)c1Cl [CHLOROTHALONIL] | 83.9

The molecules below were run on Rhizoctonia solani (assay: Antifungal activity against Rhizoctonia solani assessed as growth inhibition at 500 ug/mL by potted plant test). Settings: read-out: GI.
Type: functional

Row | SMILES | inhibition of growth at 500 µg/mL [%]
51 | COc1ccccc1C(=O)N/N=C/c1ccc(-c2ccc(F)cc2F)o1 | 2
52 | O=C(N/N=C/c1ccc(-c2ccc(F)cc2F)o1)c1ccccc1O | 16.1
53 | O=C(N/N=C/c1ccc(-c2ccc(F)cc2F)o1)c1ccccc1S[C@@H]1O[C@H](CO)[C@@H](O)[C@H](O)[C@H]1O | 45.5
54 | O=C(N/N=C/c1ccc(-c2ccc(F)cc2F)o1)c1ccccc1O[C@@H]1O[C@H](CO)[C@@H](O)[C@H](O)[C@H]1O | 45.3
55 | O=C(N/N=C/c1ccc(-c2ccc(F)cc2F)o1)c1ccccc1S[C@@H]1O[C@H](CO)[C@H](O)[C@H](O)[C@H]1O | 24.9
56 | O=C(N/N=C/c1ccc(-c2ccccc2Cl)o1)c1ccccc1S[C@@H]1O[C@H](CO)[C@@H](O)[C@H](O)[C@H]1O | 34.4
57 | O=C(N/N=C/c1ccc(-c2ccccc2Cl)o1)c1ccccc1O[C@@H]1O[C@H](CO)[C@@H](O)[C@H](O)[C@H]1O | 33.3
58 | O=C(N/N=C/c1ccc(-c2ccc(F)cc2F)o1)c1ccccc1S[C@@H]1O[C@H](CO)[C@@H](O[C@@H]2O[C@H](CO)[C@H](O)[C@H](O)[C@H]2O)[C@H](O)[C@H]1O | 10.7
59 | O=C(N/N=C/c1ccc(-c2ccccc2Cl)o1)c1ccccc1S[C@@H]1O[C@H](CO)[C@@H](O[C@@H]2O[C@H](CO)[C@H](O)[C@H](O)[C@H]2O)[C@H](O)[C@H]1O | 43.5
60 | OCC1=C[C@H](N[C@H]2C[C@H](CO)[C@@H](O[C@@H]3O[C@H](CO)[C@@H](O)[C@H](O)[C@H]3O)[C@H](O)[C@H]2O)[C@H](O)[C@@H](O)[C@@H]1O [VALIDAMYCIN] | 81

These molecules were tested on BGC-823 (assay: Antitumor activity against human BGC823 cells assessed as growth inhibition at 10 uM by SRB method). Settings: read-out: GI.
Type: functional

Row | SMILES | inhibition of growth at 10 µM [%]
61 | COc1ccccc1C(=O)N/N=C/c1ccc(-c2ccc(F)cc2F)o1 | 35.9
62 | O=C(N/N=C/c1ccc(-c2ccc(F)cc2F)o1)c1ccccc1O | 68.4
63 | O=C(N/N=C/c1ccc(-c2ccc(F)cc2F)o1)c1ccccc1S[C@@H]1O[C@H](CO)[C@@H](O)[C@H](O)[C@H]1O | 18.4
64 | O=C(N/N=C/c1ccc(-c2ccc(F)cc2F)o1)c1ccccc1O[C@@H]1O[C@H](CO)[C@@H](O)[C@H](O)[C@H]1O | 6.66
65 | O=C(N/N=C/c1ccc(-c2ccc(F)cc2F)o1)c1ccccc1S[C@@H]1O[C@H](CO)[C@H](O)[C@H](O)[C@H]1O | 16.1
66 | O=C(N/N=C/c1ccc(-c2ccccc2Cl)o1)c1ccccc1S[C@@H]1O[C@H](CO)[C@@H](O)[C@H](O)[C@H]1O | 6.21
67 | O=C(N/N=C/c1ccc(-c2ccccc2Cl)o1)c1ccccc1O[C@@H]1O[C@H](CO)[C@@H](O)[C@H](O)[C@H]1O | 1.88
68 | O=C(N/N=C/c1ccc(-c2ccc(F)cc2F)o1)c1ccccc1S[C@@H]1O[C@H](CO)[C@@H](O[C@@H]2O[C@H](CO)[C@H](O)[C@H](O)[C@H]2O)[C@H](O)[C@H]1O | -2.72
69 | O=C(N/N=C/c1ccc(-c2ccccc2Cl)o1)c1ccccc1S[C@@H]1O[C@H](CO)[C@@H](O[C@@H]2O[C@H](CO)[C@H](O)[C@H](O)[C@H]2O)[C@H](O)[C@H]1O | 1.91
70 | COc1cccc2c1C(=O)c1c(O)c3c(c(O)c1C2=O)C[C@@](O)(C(=O)CO)C[C@@H]3O[C@H]1C[C@H](N)[C@H](O)[C@H](C)O1 [DOXORUBICIN] | 51.2
